In PubChem BioAssay (NCI):
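Following 48 hours of exposure in 96-well plates, responses at five concentrations were used to interpolate endpoints linearly. GI50: concentration for 50% inhibition of growth. TGI is the concentration that stops growth completely.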

What was measured:
Assay in all cases: NCI tumour cell line growth inhibition, 48 h
786-0 renal = tested on: 786-0 renal
A498 renal = tested on: A498 renal
ACHN renal = tested on: ACHN renal
BT-549 breast = tested on: BT-549 breast
CAKI-1 renal = tested on: CAKI-1 renal
CCRF-CEM leukemia = tested on: CCRF-CEM leukemia
COLO 205 colon = tested on: COLO 205 colon
DU-145 prostate = tested on: DU-145 prostate
EKVX NSCLC = tested on: EKVX NSCLC
HCC-2998 colon = tested on: HCC-2998 colon
HCT-116 colon = tested on: HCT-116 colon
HCT-15 colon = tested on: HCT-15 colon
HL-60(TB) leukemia = tested on: HL-60(TB) leukemia
HOP-62 NSCLC = tested on: HOP-62 NSCLC
HOP-92 NSCLC = tested on: HOP-92 NSCLC
HS 578T breast = tested on: HS 578T breast
HT29 colon = tested on: HT29 colon
IGROV1 ovarian = tested on: IGROV1 ovarian
K-562 leukemia = tested on: K-562 leukemia
KM12 colon = tested on: KM12 colon
LOX IMVI melanoma = tested on: LOX IMVI melanoma
M14 melanoma = tested on: M14 melanoma
MALME-3M melanoma = tested on: MALME-3M melanoma
MCF7 breast = tested on: MCF7 breast
MDA-MB-231 breast = tested on: MDA-MB-231 breast
MDA-MB-435 = tested on: MDA-MB-435
MDA-MB-468 breast = tested on: MDA-MB-468 breast
MOLT-4 leukemia = tested on: MOLT-4 leukemia
NCI-H226 lung = tested on: NCI-H226 lung
NCI-H23 lung = tested on: NCI-H23 lung
NCI-H460 lung = tested on: NCI-H460 lung
NCI-H522 lung = tested on: NCI-H522 lung
NCI/ADR-RES ovarian = tested on: NCI/ADR-RES ovarian
OVCAR-3 ovarian = tested on: OVCAR-3 ovarian
OVCAR-4 ovarian = tested on: OVCAR-4 ovarian
OVCAR-5 ovarian = tested on: OVCAR-5 ovarian
OVCAR-8 ovarian = tested on: OVCAR-8 ovarian
PC-3 prostate = tested on: PC-3 prostate
RPMI-8226 leukemia = tested on: RPMI-8226 leukemia
RXF 393 renal = tested on: RXF 393 renal
SF-268 CNS = tested on: SF-268 CNS
SF-295 CNS = tested on: SF-295 CNS
SF-539 CNS = tested on: SF-539 CNS
SK-MEL-2 melanoma = tested on: SK-MEL-2 melanoma
SK-MEL-28 melanoma = tested on: SK-MEL-28 melanoma
SK-MEL-5 melanoma = tested on: SK-MEL-5 melanoma
SK-OV-3 ovarian = tested on: SK-OV-3 ovarian
SN12C renal = tested on: SN12C renal
SNB-19 CNS = tested on: SNB-19 CNS
SNB-75 CNS = tested on: SNB-75 CNS
SR leukemia = tested on: SR leukemia
T-47D breast = tested on: T-47D breast
TK-10 renal = tested on: TK-10 renal
U251 CNS = tested on: U251 CNS
UACC-257 melanoma = tested on: UACC-257 melanoma
UACC-62 melanoma = tested on: UACC-62 melanoma
UO-31 renal = tested on: UO-31 renal

Cn1cc(-c2cc3nc(-c4c[nH]c5ccccc45)cc(N)n3n2)c2cc(Cl)ccc21
GI50 (786-0 renal): 1.64 µM | TGI (786-0 renal): 3.12 µM | GI50 (A498 renal): 3.16 µM | TGI (A498 renal): 11.1 µM | GI50 (ACHN renal): 1.75 µM | TGI (ACHN renal): 3.41 µM | GI50 (BT-549 breast): 12.9 µM | TGI (BT-549 breast): 32.2 µM | GI50 (CAKI-1 renal): 1.66 µM | TGI (CAKI-1 renal): 3.2 µM | GI50 (CCRF-CEM leukemia): 4.4 µM | TGI (CCRF-CEM leukemia): > 100 µM | GI50 (COLO 205 colon): 1.89 µM | TGI (COLO 205 colon): 3.59 µM | GI50 (DU-145 prostate): 3.62 µM | TGI (DU-145 prostate): 13.4 µM | GI50 (EKVX NSCLC): 2.12 µM | TGI (EKVX NSCLC): 6.03 µM | GI50 (HCC-2998 colon): 1.87 µM | TGI (HCC-2998 colon): 3.5 µM | GI50 (HCT-116 colon): 1.75 µM | TGI (HCT-116 colon): 3.24 µM | GI50 (HCT-15 colon): 1.62 µM | TGI (HCT-15 colon): 3.35 µM | GI50 (HL-60(TB) leukemia): 1.94 µM | TGI (HL-60(TB) leukemia): 5.01 µM | GI50 (HOP-62 NSCLC): 2.12 µM | TGI (HOP-62 NSCLC): 5.31 µM | GI50 (HOP-92 NSCLC): 1.99 µM | TGI (HOP-92 NSCLC): 4.1 µM | GI50 (HS 578T breast): 2.38 µM | TGI (HS 578T breast): 6.49 µM | GI50 (HT29 colon): 1.93 µM | TGI (HT29 colon): 3.99 µM | GI50 (IGROV1 ovarian): 2.53 µM | TGI (IGROV1 ovarian): 7.62 µM | GI50 (K-562 leukemia): 2.26 µM | TGI (K-562 leukemia): 6.3 µM | GI50 (KM12 colon): 1.99 µM | TGI (KM12 colon): 4.24 µM | GI50 (LOX IMVI melanoma): 1.71 µM | TGI (LOX IMVI melanoma): 3.15 µM | GI50 (M14 melanoma): 1.77 µM | TGI (M14 melanoma): 3.36 µM | GI50 (MALME-3M melanoma): 1.7 µM | TGI (MALME-3M melanoma): 3.26 µM | GI50 (MCF7 breast): 1.66 µM | TGI (MCF7 breast): 3.31 µM | GI50 (MDA-MB-231 breast): 2.31 µM | TGI (MDA-MB-231 breast): 5.24 µM | GI50 (MDA-MB-435): 1.79 µM | TGI (MDA-MB-435): 3.32 µM | GI50 (MDA-MB-468 breast): 1.62 µM | TGI (MDA-MB-468 breast): 3.37 µM | GI50 (MOLT-4 leukemia): 2.71 µM | TGI (MOLT-4 leukemia): 11.1 µM | GI50 (NCI-H226 lung): 16.9 µM | TGI (NCI-H226 lung): 44 µM | GI50 (NCI-H23 lung): 2.26 µM | TGI (NCI-H23 lung): 5.58 µM | GI50 (NCI-H460 lung): 2.36 µM | TGI (NCI-H460 lung): 5.56 µM | GI50 (NCI-H522 lung): 1.75 µM | TGI (NCI-H522 lung): 3.75 µM | GI50 (NCI/ADR-RES ovarian): 2.46 µM | TGI (NCI/ADR-RES ovarian): 6.8 µM | GI50 (OVCAR-3 ovarian): 2.23 µM | TGI (OVCAR-3 ovarian): 4.76 µM | GI50 (OVCAR-4 ovarian): 1.82 µM | TGI (OVCAR-4 ovarian): 3.49 µM | GI50 (OVCAR-5 ovarian): 1.81 µM | TGI (OVCAR-5 ovarian): 4.22 µM | GI50 (OVCAR-8 ovarian): 2.23 µM | TGI (OVCAR-8 ovarian): 5.07 µM | GI50 (PC-3 prostate): 2.97 µM | TGI (PC-3 prostate): 9.37 µM | GI50 (RPMI-8226 leukemia): 2.94 µM | TGI (RPMI-8226 leukemia): 9.18 µM | GI50 (RXF 393 renal): 1.87 µM | TGI (RXF 393 renal): 3.81 µM | GI50 (SF-268 CNS): 2.16 µM | TGI (SF-268 CNS): 5.44 µM | GI50 (SF-295 CNS): 1.78 µM | TGI (SF-295 CNS): 3.53 µM | GI50 (SF-539 CNS): 1.73 µM | TGI (SF-539 CNS): 3.19 µM | GI50 (SK-MEL-2 melanoma): 2.11 µM | TGI (SK-MEL-2 melanoma): 4.63 µM | GI50 (SK-MEL-28 melanoma): 1.7 µM | TGI (SK-MEL-28 melanoma): 3.12 µM | GI50 (SK-MEL-5 melanoma): 1.98 µM | TGI (SK-MEL-5 melanoma): 4.09 µM | GI50 (SK-OV-3 ovarian): 2.24 µM | TGI (SK-OV-3 ovarian): 5.62 µM | GI50 (SN12C renal): 1.9 µM | TGI (SN12C renal): 4.15 µM | GI50 (SNB-19 CNS): 3.29 µM | TGI (SNB-19 CNS): 13.8 µM | GI50 (SNB-75 CNS): 1.52 µM | TGI (SNB-75 CNS): 3.06 µM | GI50 (SR leukemia): 2.61 µM | TGI (SR leukemia): 9.11 µM | GI50 (T-47D breast): 1.76 µM | TGI (T-47D breast): 3.82 µM | GI50 (TK-10 renal): 2.03 µM | TGI (TK-10 renal): 5.36 µM | GI50 (U251 CNS): 1.8 µM | TGI (U251 CNS): 3.61 µM | GI50 (UACC-257 melanoma): 1.68 µM | TGI (UACC-257 melanoma): 3.25 µM | GI50 (UACC-62 melanoma): 1.8 µM | TGI (UACC-62 melanoma): 3.51 µM | GI50 (UO-31 renal): 1.72 µM | TGI (UO-31 renal): 3.25 µM
